Results on 1 molecule are retold here after patent EP1081232A1, “Novel target for antifungals” (K.U. LEUVEN RESEARCH & DEVELOPMENT, priority 1999, dated 2001).

For the experiment, the system named is tps2Δ strains. In words: Sensitivity towards antifungals, growth curves in liquid medium in microtiter wells (bioscreen C). The experiment is classed as cell-based, Saccharomyces cerevisiae. To be noted: 10^-6 M ketoconazole, 33°C, cells pre-grown to stationary phase, OD 600 nm, after 24 hours. On the procedure:
Sensitivity towards the antifungals itraconazole and ketoconazole was tested in microtiter wells using a bioscreen C apparatus (Life sciences, Labsystems) and on solid culture media.
Yeast cells were pre-grown in YPglucose medium till stationary phase. The cells were diluted to a initial optical density of 0.05 OD and 300 µl of cell suspension was added to each well of a microtiter plate. Three µl of the correct stock solution of the compound, dissolved in DMSO, were added to each well. For the control reactions, only DMSO was added. The microtiter plate was placed in the bioscreen C apparatus and were incubated at 33°C or 37°C, with medium intensity shaking (30 seconds shaking per minute). The optical density at 600 nm was measured every 30 min.
The effect of the addition of 10^-7 M Itraconazole and 10^-6 Ketoconazole on the growth curve of prototrophic tps2Δ strain PVD32 and wild type strain PVD23 at 33°C is shown in Figures 3 and 4 respectively.
The effect of different concentrations of itraconazole on the growth at 33°C of the diploid wild type strain (PVD190) and the diploid heterozygous tps2Δ strain PVD191 was tested and the results are presented in Figure 5.

Take `CC(=O)N1CCN(c2ccc(OCC3COC(Cn4ccnc4)(c4ccc(Cl)cc4Cl)O3)cc2)CC1` (stereo not shown) [ketoconazole]: the effect on growth result was “no detectable growth”.
